Experimental data: US9428456B2, “1-[m-carboxamido(hetero)aryl-methyl]-heterocyclyl-carboxamide derivatives” (Actelion Pharmaceuticals Ltd., priority 2012, dated 2016)
pEC50: −log10 of the molar value.

molecular target: CXCR7 (Homo sapiens (Human), UniProt P25106); test: PathHunter CHO-K1 CXCR7 b-arrestin assay (agonistic activity); assay type: cell-based; conditions: PathHunter CHO-K1 CXCR7 b-arrestin cell line
Outline: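 CHO-K1 cells co-expressing ProLink-tagged CXCR7 and EA-fused β-arrestin 2 (enzyme fragment complementation); compounds added in HBSS/20 mM HEPES/0.2% BSA after 3–4 h in OPTIMEM, 90 min at 37 °C. Chemiluminescent β-gal signal read after 1 h detection at room temperature; EC50 reported as geometric mean of several measurements.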

CXCR7, sequence (P25106 whole entry, the tested form may be a part): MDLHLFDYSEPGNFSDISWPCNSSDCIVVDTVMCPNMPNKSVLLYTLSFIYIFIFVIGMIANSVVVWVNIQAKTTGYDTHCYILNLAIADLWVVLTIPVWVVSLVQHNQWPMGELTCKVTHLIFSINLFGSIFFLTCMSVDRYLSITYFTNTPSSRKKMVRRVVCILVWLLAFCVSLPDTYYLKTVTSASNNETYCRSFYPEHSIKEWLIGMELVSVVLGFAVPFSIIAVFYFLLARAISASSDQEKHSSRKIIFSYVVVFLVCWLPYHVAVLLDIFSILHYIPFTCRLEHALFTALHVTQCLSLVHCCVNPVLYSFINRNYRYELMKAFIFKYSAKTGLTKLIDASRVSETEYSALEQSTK
CXCR7, sequence (P32121 whole entry partner, the tested form may be a part): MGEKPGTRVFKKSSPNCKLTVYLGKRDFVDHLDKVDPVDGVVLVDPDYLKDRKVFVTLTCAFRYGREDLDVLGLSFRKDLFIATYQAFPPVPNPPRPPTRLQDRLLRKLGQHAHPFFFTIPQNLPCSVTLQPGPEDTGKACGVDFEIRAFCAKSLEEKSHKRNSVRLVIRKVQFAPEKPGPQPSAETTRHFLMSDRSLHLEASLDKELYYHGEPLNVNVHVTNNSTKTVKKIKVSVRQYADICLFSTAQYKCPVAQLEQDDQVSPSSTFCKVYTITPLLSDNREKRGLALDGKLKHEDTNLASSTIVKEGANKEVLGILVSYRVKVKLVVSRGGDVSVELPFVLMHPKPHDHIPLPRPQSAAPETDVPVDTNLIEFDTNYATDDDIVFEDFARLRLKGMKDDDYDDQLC

In order of falling pEC50:
1. O=C(Nc1ccc(Cl)c(CN2CCC(C(=O)NC3CCCC3)CC2)c1)c1ccccc1 [Example 1.217]  9.40
2. O=C(Nc1ccc(Cl)c(CN2CCC(C(=O)NC3CCCC3)CC2)c1)c1ccc(F)cn1 [Example 1.224]  9.40
3. CC(C)(C)NC(=O)C1CCN(Cc2cccc(NC(=O)c3ccc(F)cc3)c2)CC1 [Example 1.223]  9.30
4. CC(C)(C)NC(=O)C1CCN(Cc2cccc(NC(=O)c3ccc(C(F)(F)F)cn3)c2)CC1 [Example 1.229]  9.30
5. O=C(Nc1cccc(CN2CCC(C(=O)NC3CCCC3)CC2)c1)c1cccc(C(F)(F)F)n1 [Example 1.208]  9.22
6. O=C(Nc1cccc(CN2CCC(C(=O)NC3CCCC3)CC2)c1)c1ccc(C(F)(F)F)cn1 [Example 1.210]  9.22
7. O=C(Nc1cccc(CN2CCC(C(=O)NC3CCCC3)CC2)c1)c1ccc(F)cn1 [Example 1.207]  9.10
8. O=C(Nc1ccc(Cl)c(CN2CCC(C(=O)NC3CCCC3)CC2)c1)c1cncc(C(F)(F)F)c1 [Example 1.225]  9.10
9. O=C(Nc1cccc(CN2CCC(C(=O)NC3CCCC3)CC2)c1)c1ccc(F)cc1 [Example 1.206]  9.05
10. O=C(Nc1ccc(Cl)c(CN2CCC(C(=O)NC3CCCC3)CC2)c1)c1ccc(F)cc1 [Example 1.219]  9.05
11. O=C(Nc1cccc(CN2CCC(C(=O)NC3CCCC3)CC2)c1)c1cncc(Cl)c1 [Example 1.209]  9.00
12. O=C(Nc1ccc(Cl)c(CN2CCC(C(=O)NC3CCCC3)CC2)c1)c1ccc(C(F)(F)F)cn1 [Example 1.220]  9.00
13. O=C(Nc1ccc(Cl)c(CN2CCC(C(=O)NC3CCCC3)CC2)c1)c1ccc2ncccc2c1 [Example 1.221]  9.00
14. CC(C)(C)NC(=O)C1CCN(Cc2cccc(NC(=O)c3cccc(C(F)(F)F)n3)c2)CC1 [Example 1.228]  9.00
15. CC(C)(C)NC(=O)C1CCN(Cc2cccc(NC(=O)c3cncc(C(F)(F)F)c3)c2)CC1 [Example 1.230]  9.00
16. O=C(Nc1cccc(CN2CCC(C(=O)NC3CCCCC3)CC2)c1)c1ccc(F)c(F)c1 [Example 1.129]  8.70
17. O=C(Nc1cccc(CN2CCC(C(=O)NC3CCCCC3)CC2)c1)c1cnccn1 [Example 1.141]  8.70
18. Cc1cnc(C(=O)Nc2cccc(CN3CCC(C(=O)NC4CCCCC4)CC3)c2)cn1 [Example 1.142]  8.70
19. CCc1cncc(C(=O)Nc2cccc(CN3CCC(C(=O)NC4CCCCC4)CC3)c2)c1 [Example 1.154]  8.70
20. O=C(Nc1cccc(CN2CCC(C(=O)NC3CCCCC3)CC2)c1)c1ccc(F)cc1 [Example 1.156]  8.70
21. O=C(Nc1cc(CN2CCC(C(=O)NC3CCCCC3)CC2)ccc1Cl)c1ccncn1 [Example 1.157]  8.70
22. O=C(Nc1cccc(CN2CCC(C(=O)NC3CC3)CC2)c1)c1ccc(F)cn1 [Example 1.205]  8.70
23. O=C(Nc1cccc(CN2CCC(C(=O)NC3CCCC3)CC2)c1)c1cncc(C(F)(F)F)c1 [Example 1.212]  8.70
24. O=C(Nc1cccc(CN2CCC(C(=O)NC3CCCC3)CC2)c1)c1cncc(F)c1 [Example 1.215]  8.70
25. O=C(Nc1ccc(Cl)c(CN2CCC(C(=O)NC3CCCC3)CC2)c1)c1cccc(C(F)(F)F)n1 [Example 1.218]  8.70
26. Cc1cncc(C(=O)Nc2ccc(Cl)c(CN3CCC(C(=O)NC4CCCC4)CC3)c2)c1 [Example 1.226]  8.70
27. O=C(Nc1cccc(CN2CCC(C(=O)NC3CC3)CC2)c1)c1ccc(F)cc1 [Example 1.199]  8.52
28. Cc1cccc(C(=O)Nc2cccc(CN3CCC(C(=O)NC4CC4)CC3)c2)n1 [Example 1.201]  8.52
29. O=C(Nc1cccc(CN2CCC(C(=O)NC3CCCC3)CC2)c1)c1cnc2ccccc2c1 [Example 1.211]  8.52
30. O=C(Nc1cccc(CN2CCC(C(=O)NC3CCCC3)CC2)c1)c1ccc2ncccc2c1 [Example 1.213]  8.52
31. O=C(Nc1ccc(Cl)c(CN2CCC(C(=O)NC3CCCC3)CC2)c1)c1cnc2ccccc2c1 [Example 1.222]  8.52
32. COc1ccc(C(=O)Nc2cccc(CN3CCC(C(=O)NC4CCCCC4)CC3)c2)cc1F [Example 1.123]  8.40
33. O=C(Nc1cccc(CN2CCC(C(=O)NC3CCCCC3)CC2)c1)c1cc(F)cc(Cl)c1 [Example 1.131]  8.40
34. Cc1cc(Cl)ccc1C(=O)Nc1cccc(CN2CCC(C(=O)NC3CCCCC3)CC2)c1 [Example 1.121]  8.30
35. COc1cc(F)cc(C(=O)Nc2cccc(CN3CCC(C(=O)NC4CCCCC4)CC3)c2)c1 [Example 1.124]  8.30
36. O=C(Nc1cccc(CN2CCC(C(=O)NC3CCCCC3)CC2)c1)c1cccc(F)c1F [Example 1.128]  8.30
37. O=C(Nc1cccc(CN2CCC(C(=O)NC3CCCCC3)CC2)c1)c1ccc(Cl)c(Cl)c1 [Example 1.140]  8.30
38. O=C(Nc1cccc(CN2CCC(C(=O)NC3CCCCC3)CC2)c1)c1ccc(Cl)c2c1CCO2 [Example 1.143]  8.30
39. O=C(Nc1cccc(CN2CCC(C(=O)NC3CCCCC3)CC2)c1)c1cncc(C2CC2)c1 [Example 1.147]  8.30
40. O=C(Nc1cccc(CN2CCC(C(=O)NC3CCCCC3)CC2)c1)c1ccc(CCF)cc1 [Example 1.148]  8.30
41. O=C(Nc1cc(CN2CCC(C(=O)NC3CCCCC3)CC2)ccc1Cl)c1ccc(Cl)cc1 [Example 1.160]  8.30
42. O=C(Nc1cccc(CN2CCC(C(=O)NC3CCCCC3)CC2)c1)c1ccc(Cl)cc1Cl [Example 1.138]  8.22
43. O=C(Nc1cccc(CN2CCC(C(=O)NC3CCCCC3)CC2)c1)c1ccc(Cl)cc1F [Example 1.130]  8.15
44. O=C(Nc1cccc(CN2CCC(C(=O)NC3CCCCC3)CC2)c1)c1ccc(F)cc1Cl [Example 1.133]  8.15
45. O=C(Nc1cccc(CN2CCC(C(=O)NC3CCCCC3)CC2)c1)c1cc(C(F)(F)F)ccc1F [Example 1.135]  8.15
46. O=C(Nc1cccc(CN2CCC(C(=O)NC3CCCC3)CC2)c1)c1cc(C(F)(F)F)ccn1 [Example 1.216]  8.15
47. O=C(Nc1cccc(CN2CCC(C(=O)NC3CCCCC3)CC2)c1)c1ccc(C(F)(F)F)cc1F [Example 1.134]  8.10
48. O=C(Nc1cccc(CN2CCC(C(=O)NC3CCCCC3)CC2)c1)c1cc(Cl)ccc1Cl [Example 1.137]  8.10
49. O=C(Nc1cccc(CN2CCC(C(=O)NC3CCCCC3)CC2)c1)c1cc2cccnc2[nH]1 [Example 1.146]  8.10
50. CC(c1cccc(NC(=O)c2ccc(Cl)cc2)c1)N1CCC(C(=O)NC2CCCCC2)CC1 (stereo not shown) [Example 1.164]  8.10
51. COc1cc(OC)cc(C(=O)Nc2cccc(CN3CCC(C(=O)NC4CCCCC4)CC3)c2)c1 [Example 1.125]  8.00
52. O=C(Nc1cccc(CN2CCC(C(=O)NC3CCCCC3)CC2)c1)c1ccc(Cl)c(F)c1 [Example 1.132]  8.00
53. O=C(Nc1cccc(CN2CCC(C(=O)NC3CCCCC3)CC2)c1)C1CCCCC1 [Example 1.151]  8.00
54. O=C(Nc1cccc(CN2CCC(C(=O)NC3CCCCC3)CC2)c1)C1CCCCCC1 [Example 1.152]  8.00
55. O=C(Nc1cccc(CN2CCC(C(=O)NC3CCCCC3)CC2)c1)c1ccc(C(F)(F)C(F)(F)F)cc1 [Example 1.153]  8.00
56. CC(c1cccc(NC(=O)c2ccc(F)cc2)c1)N1CCC(C(=O)NC2CCCCC2)CC1 (stereo not shown) [Example 1.166]  8.00
57. O=C(Nc1cccc(CN2CCC(C(=O)NC3CCCCC3)CC2)c1)c1cc(C(F)(F)F)ccn1 [Example 1.155]  7.92
58. Cc1ccc(C(=O)Nc2cc(CN3CCC(C(=O)NC4CCCCC4)CC3)ccc2Cl)s1 [Example 1.158]  7.85
59. COc1ccc(C(=O)Nc2cc(CN3CCC(C(=O)NC4CCCCC4)CC3)ccc2Cl)cc1 [Example 1.159]  7.85
60. COc1ccc(C(=O)Nc2cccc(CN3CCC(C(=O)NC4CCCCC4)CC3)c2)cc1C [Example 1.122]  7.82
61. O=C(Nc1cccc(CN2CCC(C(=O)NC3CC3)CC2)c1)c1cc(Cl)ccn1 [Example 1.200]  7.80
62. O=C(Nc1cccc(CN2CCC(C(=O)NC3CCCCC3)CC2)c1)c1cc(Cl)cc(Cl)c1 [Example 1.139]  7.66
63. CC(c1cccc(NC(=O)c2ccccc2)c1)N1CCC(C(=O)NC2CCCCC2)CC1 (stereo not shown) [Example 1.165]  7.64
64. O=C(Nc1cccc(CN2CCC(C(=O)NC3CCCCC3)CC2)c1)C1CCC1 [Example 1.150]  7.60
65. COc1ccc(C(=O)Nc2cccc(C(C)N3CCC(C(=O)NC4CCCCC4)CC3)c2)cc1 (stereo not shown) [Example 1.167]  7.60
66. O=C(Nc1cccc(CN2CCC(C(=O)NC3CCCCC3)CC2)c1)c1c(F)cccc1F [Example 1.127]  7.44
67. O=C(Nc1cccc(CN2CCC(C(=O)NC3CCCCC3)CC2)c1)c1cc(C(F)(F)F)cc(C(F)(F)F)c1 [Example 1.136]  7.37
68. O=C(Nc1cccc(CN2CCC(C(=O)NC3CC3)CC2)c1)c1cncc(F)c1 [Example 1.204]  7.33
69. Cc1cc(C(=O)Nc2cccc(CN3CCC(C(=O)NC4CC4)CC3)c2)ccn1 [Example 1.203]  7.25
70. COc1ccc(C(=O)Nc2cccc(CN3CCC(C(=O)NC4CCCCC4)CC3)c2)cc1OC [Example 1.126]  7.15
71. CN(C)c1cccc(C(=O)Nc2cccc(CN3CCC(C(=O)NC4CCCCC4)CC3)c2)c1 [Example 1.144]  7.14
72. O=C(Nc1cccc(CN2CCC(C(=O)NC3CCCCC3)CC2)c1)C1CC1 [Example 1.149]  7.09
73. O=C(Nc1cccc(CN2CCC(C(=O)NC3CCCC3)CC2)c1)c1cccnc1C(F)(F)F [Example 1.214]  6.96
74. Cc1ccc(C(=O)Nc2cccc(CN3CCC(C(=O)NC4CCCCC4)CC3)c2Cl)s1 [Example 1.163]  6.41
75. O=C(Nc1cccc(CN2CCC(C(=O)NC3CCCCC3)CC2)c1)c1c(F)cccc1C(F)(F)F [Example 1.145]  6.37
76. O=C(Nc1cccc(CN2CCC(C(=O)NC3CCCCC3)CC2)c1Cl)c1ccc(Cl)cc1 [Example 1.162]  5.56
